Positions of bridges follow the written chain, without caps; N, C: chain ends. Non-standard residues stand in square brackets, D forms with d. Residues, ends and D or L forms follow the SMILES beside them. *: point of attachment. Malonyl(2,2-Me2,histaminyl) = CC(C)(C(=O)NCCc1cnc[nH]1)C(=O)*; Ala(1H-tetrazol-5-yl) = N[C@@H](Cc1nnn[nH]1)C(=O)O; αMeL = CC(C)C[C@](C)(N)C(=O)O; Nle = CCCC[C@H](N)C(=O)O; Aib = CC(C)(N)C(=O)O
What was measured:
[1] = target: T1, human GLP2 receptor (Homo sapiens, UniProt O95838); assay: cAMP accumulation assay, functional agonism of human GLP2 receptor; type: cell-based; details: HEK cells infected with human GLP2 receptor BacMam virus, HTRF cAMP; for Emax: HEK293, read-out: Human GLP-2R agonist cAMP Emax; for EC50: read-out: Human GLP-2R agonist cAMP pEC50 (converted)
T1 construct: expressed in transfected cells; host or cells: HEK cells, BacMam virus transduction
T1 sequence (O95838 1-553): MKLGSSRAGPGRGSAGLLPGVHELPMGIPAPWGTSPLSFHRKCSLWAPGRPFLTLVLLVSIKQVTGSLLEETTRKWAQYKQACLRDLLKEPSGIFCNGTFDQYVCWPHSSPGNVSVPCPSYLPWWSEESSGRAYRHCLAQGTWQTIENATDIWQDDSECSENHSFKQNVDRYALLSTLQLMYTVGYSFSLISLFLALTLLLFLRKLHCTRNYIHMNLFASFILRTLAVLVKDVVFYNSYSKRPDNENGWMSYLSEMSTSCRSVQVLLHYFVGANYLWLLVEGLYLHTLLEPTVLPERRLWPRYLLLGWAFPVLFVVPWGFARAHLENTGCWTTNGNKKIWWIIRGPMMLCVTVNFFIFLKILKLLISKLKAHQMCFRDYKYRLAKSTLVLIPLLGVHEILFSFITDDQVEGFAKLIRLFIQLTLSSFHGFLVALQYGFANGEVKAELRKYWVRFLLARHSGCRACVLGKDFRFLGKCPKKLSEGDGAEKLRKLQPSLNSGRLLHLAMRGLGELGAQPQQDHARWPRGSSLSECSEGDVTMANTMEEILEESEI
How it was run: (§1)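 HEK cells transduced for 24 hours with human GLP2 or GLP1 receptor BacMam virus were frozen, then stimulated with agonist in HBSS containing 0.5 mM IBMX. After 45 min at 37° C, cAMP was measured by HTRF after adding detection reagents in lysis buffer.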

[2] = target: T2, human GLP1 receptor (Homo sapiens, UniProt P43220); assay: cAMP accumulation assay, functional agonism of human GLP1 receptor; type: cell-based; details: HEK cells infected with human GLP1 receptor BacMam virus, HTRF cAMP; for Emax: HEK293, read-out: Human GLP-1R agonist cAMP Emax; for EC50: read-out: Human GLP-1R agonist cAMP pEC50 (converted)
T2 construct: expressed in transfected cells; host or cells: HEK cells, BacMam virus transduction
How it was run: as §1

[3] = Stability of peptides in Fasted-State Simulated Intestinal Fluid (FaSSIF); type: in vitro ADME; details: FaSSIF with 10 mg/ml pancreatin, 37° C.; for remaining at 0.5 h: t=30 mins, pH 6.5, 10 mg/ml pancreatin; for remaining at 0.25 h: FaSSIF pH 6.5 with 10 mg/ml pancreatin, t = 15 mins

T2 sequence (P43220 24-463): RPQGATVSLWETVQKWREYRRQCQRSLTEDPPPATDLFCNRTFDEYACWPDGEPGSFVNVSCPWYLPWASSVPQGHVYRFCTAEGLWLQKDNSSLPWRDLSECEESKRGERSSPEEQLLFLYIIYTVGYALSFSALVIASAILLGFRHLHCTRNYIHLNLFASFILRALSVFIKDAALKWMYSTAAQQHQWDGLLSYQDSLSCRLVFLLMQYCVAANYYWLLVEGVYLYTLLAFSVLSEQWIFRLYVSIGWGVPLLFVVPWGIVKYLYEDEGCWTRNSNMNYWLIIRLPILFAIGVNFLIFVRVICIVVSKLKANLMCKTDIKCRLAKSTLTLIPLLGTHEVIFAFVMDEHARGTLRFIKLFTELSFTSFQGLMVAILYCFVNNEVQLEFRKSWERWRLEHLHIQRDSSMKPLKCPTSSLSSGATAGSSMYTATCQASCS

In the case of `CCCC[C@@H]1NC(=O)[C@H](CCC(=O)O)NC(=O)[C@@H](NC(=O)[C@H](CO)NC(=O)[C@H](Cc2ccccc2)NC(=O)[C@H](CO)NC(=O)CNC(=O)[C@H](Cc2nn[nH]n2)NC(=O)C(C)(C)C(=O)NCCc2c[nH]cn2)CCCCNC(=O)C[C@@H](C(=O)N[C@H](C(=O)N[C@@H](CC(C)C)C(=O)N[C@@H](CC(=O)O)C(=O)N[C@H]2CCC(=O)NCCCC[C@@H](C(=O)N[C@@H](CC(=O)O)C(=O)N[C@@H](Cc3ccccc3)C(=O)N[C@H](C(=O)N[C@@H](CC(N)=O)C(=O)N[C@@H](Cc3c[nH]c4ccccc34)C(=O)N[C@@H](CC(C)C)C(=O)N[C@H](C(=O)N[C@@H](CCC(N)=O)C(=O)N[C@H](C(=O)N[C@H]3CCC(=O)NCCCC[C@@H](C(N)=O)NC(=O)[C@H]([C@@H](C)O)NC(=O)[C@H]([C@@H](C)CC)NC3=O)[C@@H](C)O)[C@@H](C)CC)[C@@H](C)CC)NC(=O)[C@H](C)NC(=O)C(C)(C)NC(=O)[C@H](CCCCN)NC2=O)[C@@H](C)CC)NC(=O)[C@@H](Cc2ccccc2)NC1=O` [Example 12] ({Malonyl(2,2-Me2,histaminyl)}-[Ala(1H-tetrazol-5-yl)]GSFSKE[Nle][dF]DILDEK[Aib]AKDFINWLIQTEITK-NH2; lactam 6-10, 14-18, 28-31; C-terminus assumed), the Emax [1] is reported as 105%, the EC50 [1] is reported as 50.1 pM and the Emax [2] is reported as 94.5%. It also gave an EC50 [2] of 251 pM and a remaining at 0.5 h [3] of 10.7%.
Compound `CCCC[C@@H]1NC(=O)[C@H](CCC(=O)O)NC(=O)[C@@H](NC(=O)[C@H](CO)NC(=O)[C@H](Cc2ccccc2)NC(=O)[C@H](CO)NC(=O)CNC(=O)[C@H](Cc2nn[nH]n2)NC(=O)C(C)(C)C(=O)NCCc2c[nH]cn2)CCCCNC(=O)C[C@@H](C(=O)N[C@@](C)(CC(C)C)C(=O)N[C@@H](CC(C)C)C(=O)N[C@@H](CC(=O)O)C(=O)N[C@H]2CCC(=O)NCCCC[C@@H](C(=O)N[C@@H](CC(=O)O)C(=O)N[C@@H](Cc3ccccc3)C(=O)N[C@H](C(=O)N[C@@H](CC(N)=O)C(=O)N[C@@H](Cc3c[nH]c4ccccc34)C(=O)N[C@@H](CC(C)C)C(=O)N[C@H](C(=O)N[C@@H](CCC(N)=O)C(=O)N[C@H](C(=O)N[C@H]3CCC(=O)NCCCC[C@@H](C(N)=O)NC(=O)[C@H]([C@@H](C)O)NC(=O)[C@H]([C@@H](C)CC)NC3=O)[C@@H](C)O)[C@@H](C)CC)[C@@H](C)CC)NC(=O)[C@H](C)NC(=O)[C@H](C)NC(=O)[C@H](CCCCN)NC2=O)NC(=O)[C@@H](Cc2ccccc2)NC1=O` [Example 11] ({Malonyl(2,2-Me2,histaminyl)}-[Ala(1H-tetrazol-5-yl)]GSFSKE[Nle][dF]D[αMeL]LDEKAAKDFINWLIQTEITK-NH2; lactam 6-10, 14-18, 28-31 (inferred); C-terminus assumed) has an Emax [1] of 105%, an EC50 [1] of 79.4 pM and an Emax [2] of 95.3%. It also gave an EC50 [2] of 251 pM and a remaining at 0.5 h [3] of 22.3%.
For `CCCC[C@H](NC(=O)[C@H](CCC(=O)O)NC(=O)[C@H](CC(=O)O)NC(=O)[C@H](CO)NC(=O)[C@H](Cc1ccccc1)NC(=O)[C@H](CO)NC(=O)CNC(=O)[C@H](Cc1nn[nH]n1)NC(=O)C(C)(C)C(=O)NCCc1c[nH]cn1)C(=O)N[C@H](Cc1ccccc1)C(=O)N[C@H](C(=O)N[C@H](C(=O)N[C@@H](CC(C)C)C(=O)N[C@@H](CC(=O)O)C(=O)N[C@H]1CC(=O)NCCCC[C@@H](C(=O)N[C@@H](CC(=O)O)C(=O)N[C@@H](Cc2ccccc2)C(=O)N[C@H](C(=O)N[C@@H](CC(N)=O)C(=O)N[C@@H](Cc2c[nH]c3ccccc23)C(=O)N[C@@H](CC(C)C)C(=O)N[C@H](C(=O)N[C@@H](CCC(N)=O)C(=O)N[C@H](C(=O)N[C@H]2CCC(=O)NCCCC[C@@H](C(N)=O)NC(=O)[C@H]([C@@H](C)O)NC(=O)[C@H]([C@@H](C)CC)NC2=O)[C@@H](C)O)[C@@H](C)CC)[C@@H](C)CC)NC(=O)[C@H](C)NC(=O)[C@H](C)NC(=O)[C@H](CCCCN)NC1=O)[C@@H](C)CC)[C@@H](C)O` [Example 106] ({Malonyl(2,2-Me2,histaminyl)}-[Ala(1H-tetrazol-5-yl)]GSFSDE[Nle][dF]TILDDKAAKDFINWLIQTEITK-NH2; lactam 14-18, 28-31; C-terminus assumed), the Emax [1] was 102%, the EC50 [1] was 501 pM and the Emax [2] was 97.2%. For the same compound, the EC50 [2] was 316 pM and the remaining at 0.25 h [3] was 9.6%.
`CCCC[C@H](NC(=O)[C@H](CCC(=O)O)NC(=O)[C@@H]1CC(=O)NCCCC[C@H](NC(=O)[C@H](Cc2nn[nH]n2)NC(=O)C(C)(C)C(=O)NCCc2c[nH]cn2)C(=O)N[C@@H](CO)C(=O)N[C@@H](Cc2ccccc2)C(=O)N[C@@H](CO)C(=O)N1)C(=O)N[C@H](Cc1ccccc1)C(=O)N[C@H](C(=O)N[C@@](C)(CC(C)C)C(=O)N[C@@H](CC(C)C)C(=O)N[C@@H](CC(=O)O)C(=O)N[C@H]1CCC(=O)NCCCC[C@@H](C(=O)N[C@@H](CC(=O)O)C(=O)N[C@@H](Cc2ccccc2)C(=O)N[C@H](C(=O)N[C@H]2CCC(=O)NCCCC[C@@H](C(=O)N[C@H](C(=O)N[C@@H](CCCCN)C(N)=O)[C@@H](C)O)NC(=O)[C@H]([C@@H](C)CC)NC(=O)[C@H](CC(C)C)NC(=O)[C@H](Cc3c[nH]c4ccccc34)NC2=O)[C@@H](C)CC)NC(=O)[C@H](C)NC(=O)[C@H](C)NC(=O)[C@H](CCCCN)NC1=O)[C@@H](C)O` [Example 17] ({Malonyl(2,2-Me2,histaminyl)}-[Ala(1H-tetrazol-5-yl)]KSFSDE[Nle][dF]T[αMeL]LDEKAAKDFIEWLIKTK-NH2; lactam 2-6, 14-18, 22-26; C-terminus assumed) showed an Emax [1] of 104%, an EC50 [1] of 39.8 pM and an Emax [2] of 96.3%. The EC50 [2] was 158 pM and the remaining at 0.5 h [3] was 68.7%.
Compound `CCCC[C@H](NC(=O)[C@H](CCC(=O)O)NC(=O)[C@H](CC(=O)O)NC(=O)[C@H](CO)NC(=O)[C@H](Cc1ccccc1)NC(=O)[C@H](CO)NC(=O)CNC(=O)[C@H](Cc1nn[nH]n1)NC(=O)C(C)(C)C(=O)NCCc1c[nH]cn1)C(=O)N[C@H](Cc1ccccc1)C(=O)N[C@H]1CCCCNC(=O)C[C@@H](C(=O)N[C@@H](CCCCN)C(=O)N[C@@H](C)C(=O)N[C@@H](C)C(=O)NC(C)(C)C(=O)N[C@@H](CC(=O)O)C(=O)N[C@@H](Cc2ccccc2)C(=O)N[C@H](C(=O)N[C@@H](CC(N)=O)C(=O)N[C@@H](Cc2c[nH]c3ccccc23)C(=O)N[C@@H](CC(C)C)C(=O)N[C@H](C(=O)N[C@@H](CCC(N)=O)C(=O)N[C@H](C(=O)N[C@H]2CCC(=O)NCCCC[C@@H](C(N)=O)NC(=O)[C@H]([C@@H](C)O)NC(=O)[C@H]([C@@H](C)CC)NC2=O)[C@@H](C)O)[C@@H](C)CC)[C@@H](C)CC)NC(=O)[C@H](CC(=O)O)NC(=O)[C@H](CC(C)C)NC(=O)[C@H]([C@@H](C)CC)NC1=O` [Example 109] ({Malonyl(2,2-Me2,histaminyl)}-[Ala(1H-tetrazol-5-yl)]GSFSDE[Nle][dF]KILDDKAA[Aib]DFINWLIQTEITK-NH2; lactam 10-14, 28-31) has an Emax [1] of 102%, an EC50 [1] of 7.94 pM and an Emax [2] of 97%. The EC50 [2] was 25.1 pM and the remaining at 0.25 h [3] was 4.6%.
With `CCCC[C@H](NC(=O)[C@H](CCC(=O)O)NC(=O)[C@H](CC(=O)O)NC(=O)[C@H](CO)NC(=O)[C@H](Cc1ccccc1)NC(=O)[C@H](CO)NC(=O)CNC(=O)[C@H](Cc1nn[nH]n1)NC(=O)C(C)(C)C(=O)NCCc1c[nH]cn1)C(=O)N[C@H](Cc1ccccc1)C(=O)N[C@H]1CCCCNC(=O)C[C@@H](C(=O)N[C@@H](CCCCN)C(=O)N[C@@H](C)C(=O)N[C@@H](C)C(=O)N[C@@H](CCCCN)C(=O)N[C@@H](CC(=O)O)C(=O)N[C@@H](Cc2ccccc2)C(=O)N[C@H](C(=O)N[C@@H](CC(N)=O)C(=O)N[C@@H](Cc2c[nH]c3ccccc23)C(=O)N[C@@H](CC(C)C)C(=O)N[C@H](C(=O)N[C@@H](CCC(N)=O)C(=O)N[C@H](C(=O)N[C@H]2CCC(=O)NCCCC[C@@H](C(N)=O)NC(=O)[C@H]([C@@H](C)O)NC(=O)[C@H]([C@@H](C)CC)NC2=O)[C@@H](C)O)[C@@H](C)CC)[C@@H](C)CC)NC(=O)[C@H](CC(=O)O)NC(=O)[C@H](CC(C)C)NC(=O)[C@H]([C@@H](C)CC)NC1=O` [Example 105] ({Malonyl(2,2-Me2,histaminyl)}-[Ala(1H-tetrazol-5-yl)]GSFSDE[Nle][dF]KILDDKAAKDFINWLIQTEITK-NH2; lactam 10-14, 28-31 (inferred); C-terminus assumed) the Emax [1] was 101%, the EC50 [1] was 25.1 pM and the Emax [2] was 97.4%. For the same compound, the EC50 [2] was 25.1 pM and the remaining at 0.25 h [3] was 1.6%.

Source: US20240270809A1, “ORAL GLP RECEPTOR AGONISTS” (priority 2020, published 2024)
